This passage reports Kd results from PMC6222781, “Structural Optimization of Foldamer-Dendrimer Conjugates as Multivalent Agents against the Toxic Effects of Amyloid Beta Oligomers” (Molecules : A Journal of Synthetic Chemistry and Natural …, 2018).

This test has as its target T1, Aβ oligomers (Homo sapiens, UniProt P05067).
T1 construct: Ser^26 depsipeptide iso-Aβ (1–42) was used; made in house; host or cells: chemical peptide synthesis (no expression host)
Put plainly: Isothermal titration calorimetry (ITC) binding to Aβ oligomers. The following applies: PBS pH 7.4, 285 K, Aβ 100 µM in cell, ligand 250 µM in syringe, two independent site model. As for the experimental part:
The binding affinities of 2b–2i to Aβ oligomers were tested in ITC experiments.
In this work, Ser^26 depsipeptide iso-Aβ (1–42) was used, which was synthesized and purified as described previously. The lyophilized iso-Aβ (1–42) was dissolved in MilliQ water to a concentration of 1 mg mL^−1, sonicated for 3 min and the pH was set to 7.0 to initiate an O to N acyl migration, whereby the native sequence can be readily formed. The sample was incubated at room temperature for 10 min. Then the pH was set to 11 and the sample was kept at room temperature for additional 2 h. After the incubation, the Aβ stock solution was aliquoted and stored at −20 °C until use. To obtain Aβ oligomers, the 1 mg mL^−1 aliquot was diluted to a final concentration of 50 μM with 26.67 mM PBS and the pH was set to 7.4 with 1 M HCl. The sample was incubated at 37 °C for 3 h.
Isothermal calorimetric titrations were performed with a Microcal VP-ITC microcalorimeter in pH 7.4 PBS buffer solution. In individual titrations, 10 µL portions of the ligand containing solution were repeatedly injected from the computer-controlled 300-µL microsyringe at intervals of 300 s into the Aβ oligomer solution prepared in the same buffer as the ligand. All measurements were carried out at 285 K. The Aβ concentration in the cell was 100 µM and the total ligand concentration was 250 µM in the syringe and the titration was stopped when the precipitation of the Aβ aggregates became excessive. Control experiments were performed by injecting the ligand into a cell containing buffer with no target, and the heats of dilution were subtracted from those measured in the presence of Aβ. The experimental data were fitted to the two independent site binding models by using a nonlinear least-squares procedure, with ΔHb, ΔHb’, Kd, Kd’ ([…]), n and n’ (number of binding sites for monomer), as adjustable parameters.

[1] abbreviates: KD, first binding stage, Table 2.
The mark [2] stands for this setting: KD, second binding stage, Table 2.

Read-outs that look alike come from different tables or passages of the source.

T1 sequence (P05067 672-713 limits assumed): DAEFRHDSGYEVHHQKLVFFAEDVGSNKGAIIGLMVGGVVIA

Consider `CC1(C)[C@H]2C[C@H](NC(=O)C[C@H](CCCNC(=N)N)NC(=O)[C@H]3CCCC[C@@H]3N)[C@@H](C(=O)N[C@H]3CCCC[C@@H]3C(=O)N[C@@H](CC(=O)O)CC(=O)N[C@H]3CCCC[C@@H]3C(=O)NCC(=O)NCC(=O)N[C@@H](CSC3CC(=O)N(CCC(=O)NCCCC[C@H](NC(=O)CCN4C(=O)CC(SC[C@H](NC(=O)CNC(=O)CNC(=O)[C@H]5CCCC[C@@H]5NC(=O)C[C@H](CC(=O)O)NC(=O)[C@H]5CCCC[C@@H]5NC(=O)[C@@H]5[C@@H](NC(=O)C[C@H](CCCNC(=N)N)NC(=O)[C@H]6CCCC[C@@H]6N)C[C@H]6C[C@@H]5C6(C)C)C(N)=O)C4=O)C(=O)NCCCC[C@H](NC(=O)[C@H](CCCCNC(=O)CCN4C(=O)CC(SC[C@H](NC(=O)CNC(=O)CNC(=O)[C@H]5CCCC[C@@H]5NC(=O)C[C@H](CC(=O)O)NC(=O)[C@H]5CCCC[C@@H]5NC(=O)[C@@H]5[C@@H](NC(=O)C[C@H](CCCNC(=N)N)NC(=O)[C@H]6CCCC[C@@H]6N)C[C@H]6C[C@@H]5C6(C)C)C(N)=O)C4=O)NC(=O)CCN4C(=O)CC(SC[C@H](NC(=O)CNC(=O)CNC(=O)[C@H]5CCCC[C@@H]5NC(=O)C[C@H](CC(=O)O)NC(=O)[C@H]5CCCC[C@@H]5NC(=O)[C@@H]5[C@@H](NC(=O)C[C@H](CCCNC(=N)N)NC(=O)[C@H]6CCCC[C@@H]6N)C[C@H]6C[C@@H]5C6(C)C)C(N)=O)C4=O)C(=O)N[C@@H](CCCCNC(=O)CCCC[C@@H]4SC[C@@H]5NC(=O)N[C@@H]54)C(N)=O)C3=O)C(N)=O)[C@@H]1C2` (stereo partly shown) [Compound 2g], for which the Kd was determined as 34.1 ± 10 nM (KD ITC, first binding stage, Table 1) and 652 ± 158 nM (KD ITC, second binding stage, Table 1).

For the compound `N=C(N)NCCC[C@@H](CC(=O)N[C@H]1CCCC[C@@H]1C(=O)N[C@H]1CCCC[C@@H]1C(=O)N[C@@H](CC(=O)O)CC(=O)N[C@H]1CCCC[C@@H]1C(=O)NCC(=O)NCC(=O)N[C@@H](CSC1CC(=O)N(CCC(=O)NCCCCC(=O)NCCN(CCNC(=O)CCCCNC(=O)CCN2C(=O)CC(SC[C@H](NC(=O)CNC(=O)CNC(=O)[C@H]3CCCC[C@@H]3NC(=O)C[C@H](CC(=O)O)NC(=O)[C@H]3CCCC[C@@H]3NC(=O)[C@H]3CCCC[C@@H]3NC(=O)C[C@H](CCCNC(=N)N)NC(=O)[C@H]3CCCC[C@@H]3N)C(N)=O)C2=O)CCNC(=O)CCCCNC(=O)CCN2C(=O)CC(SC[C@H](NC(=O)CNC(=O)CNC(=O)[C@H]3CCCC[C@@H]3NC(=O)C[C@H](CC(=O)O)NC(=O)[C@H]3CCCC[C@@H]3NC(=O)[C@H]3CCCC[C@@H]3NC(=O)C[C@H](CCCNC(=N)N)NC(=O)[C@H]3CCCC[C@@H]3N)C(N)=O)C2=O)C1=O)C(N)=O)NC(=O)[C@H]1CCCC[C@@H]1N` (stereo partly shown) [Compound 4], the dissociation constant Kd (Table 2, first binding stage, read-out: KD, first binding stage) is 18.5 ± 13.9 nM and the Kd (Table 2, second binding stage, read-out: KD, second binding stage) was 155 ± 131 nM.

Take `N=C(N)NCCC[C@@H](CC(=O)N[C@H]1CCCC[C@@H]1C(=O)N[C@H]1CCCC[C@@H]1C(=O)N[C@@H](CC(=O)O)CC(=O)N[C@H]1CCCC[C@@H]1C(=O)NCC(=O)NCC(=O)N[C@@H](CSC1CC(=O)N(CCC(=O)NCCNC(=O)CCN(CCC(=O)NCCNC(=O)CCN2C(=O)CC(SC[C@H](NC(=O)CNC(=O)CNC(=O)[C@H]3CCCC[C@@H]3NC(=O)C[C@H](CC(=O)O)NC(=O)[C@H]3CCCC[C@@H]3NC(=O)[C@H]3CCCC[C@@H]3NC(=O)C[C@H](CCCNC(=N)N)NC(=O)[C@H]3CCCC[C@@H]3N)C(N)=O)C2=O)CCN(CCC(=O)NCCNC(=O)CCN2C(=O)CC(SC[C@H](NC(=O)CNC(=O)CNC(=O)[C@H]3CCCC[C@@H]3NC(=O)C[C@H](CC(=O)O)NC(=O)[C@H]3CCCC[C@@H]3NC(=O)[C@H]3CCCC[C@@H]3NC(=O)C[C@H](CCCNC(=N)N)NC(=O)[C@H]3CCCC[C@@H]3N)C(N)=O)C2=O)CCC(=O)NCCNC(=O)CCN2C(=O)CC(SC[C@H](NC(=O)CNC(=O)CNC(=O)[C@H]3CCCC[C@@H]3NC(=O)C[C@H](CC(=O)O)NC(=O)[C@H]3CCCC[C@@H]3NC(=O)[C@H]3CCCC[C@@H]3NC(=O)C[C@H](CCCNC(=N)N)NC(=O)[C@H]3CCCC[C@@H]3N)C(N)=O)C2=O)C1=O)C(N)=O)NC(=O)[C@H]1CCCC[C@@H]1N` (stereo partly shown) [Compound 5]: the equilibrium dissociation constant (Kd) is 6.9 ± 1.4 nM under setting [1] and 281 ± 38.7 nM under setting [2].

Take `N=C(N)NCCC[C@@H](CC(=O)N[C@H]1CCCC[C@@H]1C(=O)N[C@H]1CCCC[C@@H]1C(=O)N[C@@H](CC(=O)O)CC(=O)N[C@H]1CCCC[C@@H]1C(=O)NCC(=O)NCC(=O)N[C@@H](CSC1CC(=O)N(CCC(=O)NCCNC(=O)CCN(CCNC(=O)CCN(CCC(=O)NCCN(CCC(=O)NCCNC(=O)CCN2C(=O)CC(SC[C@H](NC(=O)CNC(=O)CNC(=O)[C@H]3CCCC[C@@H]3NC(=O)C[C@H](CC(=O)O)NC(=O)[C@H]3CCCC[C@@H]3NC(=O)[C@H]3CCCC[C@@H]3NC(=O)C[C@H](CCCNC(=N)N)NC(=O)[C@H]3CCCC[C@@H]3N)C(N)=O)C2=O)CCC(=O)NCCNC(=O)CCN2C(=O)CC(SC[C@H](NC(=O)CNC(=O)CNC(=O)[C@H]3CCCC[C@@H]3NC(=O)C[C@H](CC(=O)O)NC(=O)[C@H]3CCCC[C@@H]3NC(=O)[C@H]3CCCC[C@@H]3NC(=O)C[C@H](CCCNC(=N)N)NC(=O)[C@H]3CCCC[C@@H]3N)C(N)=O)C2=O)CCN(CCC(=O)NCCN(CCC(=O)NCCNC(=O)CCN2C(=O)CC(SC[C@H](NC(=O)CNC(=O)CNC(=O)[C@H]3CCCC[C@@H]3NC(=O)C[C@H](CC(=O)O)NC(=O)[C@H]3CCCC[C@@H]3NC(=O)[C@H]3CCCC[C@@H]3NC(=O)C[C@H](CCCNC(=N)N)NC(=O)[C@H]3CCCC[C@@H]3N)C(N)=O)C2=O)CCC(=O)NCCNC(=O)CCN2C(=O)CC(SC[C@H](NC(=O)CNC(=O)CNC(=O)[C@H]3CCCC[C@@H]3NC(=O)C[C@H](CC(=O)O)NC(=O)[C@H]3CCCC[C@@H]3NC(=O)[C@H]3CCCC[C@@H]3NC(=O)C[C@H](CCCNC(=N)N)NC(=O)[C@H]3CCCC[C@@H]3N)C(N)=O)C2=O)CCC(=O)NCCN(CCC(=O)NCCNC(=O)CCN2C(=O)CC(SC[C@H](NC(=O)CNC(=O)CNC(=O)[C@H]3CCCC[C@@H]3NC(=O)C[C@H](CC(=O)O)NC(=O)[C@H]3CCCC[C@@H]3NC(=O)[C@H]3CCCC[C@@H]3NC(=O)C[C@H](CCCNC(=N)N)NC(=O)[C@H]3CCCC[C@@H]3N)C(N)=O)C2=O)CCC(=O)NCCNC(=O)CCN2C(=O)CC(SC[C@H](NC(=O)CNC(=O)CNC(=O)[C@H]3CCCC[C@@H]3NC(=O)C[C@H](CC(=O)O)NC(=O)[C@H]3CCCC[C@@H]3NC(=O)[C@H]3CCCC[C@@H]3NC(=O)C[C@H](CCCNC(=N)N)NC(=O)[C@H]3CCCC[C@@H]3N)C(N)=O)C2=O)CCC(=O)NCCNC(=O)CCN2C(=O)CC(SC[C@H](NC(=O)CNC(=O)CNC(=O)[C@H]3CCCC[C@@H]3NC(=O)C[C@H](CC(=O)O)NC(=O)[C@H]3CCCC[C@@H]3NC(=O)[C@H]3CCCC[C@@H]3NC(=O)C[C@H](CCCNC(=N)N)NC(=O)[C@H]3CCCC[C@@H]3N)C(N)=O)C2=O)C1=O)C(N)=O)NC(=O)[C@H]1CCCC[C@@H]1N` (stereo partly shown) [Compound 6]: the dissociation constant Kd amounted to 69 ± 12 nM under setting [1] and 193 ± 30.5 nM under setting [2].

Consider `N=C(N)NCCC[C@@H](CC(=O)N[C@H]1CCCC[C@@H]1C(=O)N[C@H]1CCCC[C@@H]1C(=O)N[C@@H](CC(=O)O)CC(=O)N[C@H]1CCCC[C@@H]1C(=O)NCC(=O)NCC(=O)N[C@@H](CSC1CC(=O)N(CCC(=O)NCCCC[C@H](NC(=O)CCN2C(=O)CC(SC[C@H](NC(=O)CNC(=O)CNC(=O)[C@H]3CCCC[C@@H]3NC(=O)C[C@H](CC(=O)O)NC(=O)[C@H]3CCCC[C@@H]3NC(=O)[C@H]3CCCC[C@@H]3NC(=O)C[C@H](CCCNC(=N)N)NC(=O)[C@H]3CCCC[C@@H]3N)C(N)=O)C2=O)C(=O)NCCCC[C@H](NC(=O)[C@H](CCCCNC(=O)CCN2C(=O)CC(SC[C@H](NC(=O)CNC(=O)CNC(=O)[C@H]3CCCC[C@@H]3NC(=O)C[C@H](CC(=O)O)NC(=O)[C@H]3CCCC[C@@H]3NC(=O)[C@H]3CCCC[C@@H]3NC(=O)C[C@H](CCCNC(=N)N)NC(=O)[C@H]3CCCC[C@@H]3N)C(N)=O)C2=O)NC(=O)CCN2C(=O)CC(SC[C@H](NC(=O)CNC(=O)CNC(=O)[C@H]3CCCC[C@@H]3NC(=O)C[C@H](CC(=O)O)NC(=O)[C@H]3CCCC[C@@H]3NC(=O)[C@H]3CCCC[C@@H]3NC(=O)C[C@H](CCCNC(=N)N)NC(=O)[C@H]3CCCC[C@@H]3N)C(N)=O)C2=O)C(=O)NCC(N)=O)C1=O)C(N)=O)NC(=O)[C@H]1CCCC[C@@H]1N` (stereo partly shown) [Compound 7], for which the equilibrium dissociation constant (Kd) is, setting by setting: under setting [1], 16.2 ± 8.9 nM; under setting [2], 128 ± 56.7 nM.
